Species on record: Homo sapiens
Assay: Cytosolic phospholipase A2 (c-PLA2) inhibitory potency of the compound was evaluated by measuring the calcium ionophore A-23,187-induced arachidonic acid release from human platelets
Type: functional

SMILES	IC50 [nM]
CCCCCCCCCCCC(=O)c1c(C(=O)O)n(CCOc2ccc(CC(=O)O)cc2)c2ccccc12	2600
CCCCCCCCCCCC(=O)c1c(C(=O)O)n(CCCCCCCC(=O)O)c2ccccc12	2500
CCCCCCCCCCCC(=O)c1c(C(=O)O)n(CCOc2ccc(C(=O)O)cc2)c2ccccc12	860
CCCCCCCCCCCC(=O)c1c(C(=O)O)n(CCSc2ccc(C(=O)O)cc2)c2ccccc12	2500
